Results: the supplement of paper PMC4862054
Values joined by “and” are separate entries in the source; they are usually repeats but may differ in a detail not shown here. Equal values may be shown once.

What was measured:
Conditions in all cases: incubation time: 72 h
BT-474 = assay: normalised viability (% of control), CellTiter-Blue; higher = more viable cells (about 100 = DMSO control)
Method: (§1)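 DSRT, CellTiter-Blue viability, 72 h incubation. Signal is normalised to DMSO and benzethonium chloride controls. Value is the normalised response at dose 3.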

BT-549 = assay: as above
Method: as §1

CAL-120 [1] = assay: as above
Method: as §1

CAL-148 = assay: as above
Method: as §1

CAL-51 = assay: as above
Method: as §1

CAL-85-1 = assay: as above
Method: as §1

DU-4475 [2] = assay: as above
Method: as §1

HCC1143 [3] = assay: as above
Method: as §1

HCC1599 [4] = assay: as above
Method: as §1

HCC1937 = assay: as above
Method: as §1

HDQ-P1 [5] = assay: as above
Method: as §1

Hs578T = assay: as above
Method: as §1

MDA-MB-231 = assay: as above
Method: as §1

MDA-MB-436 [6] = assay: as above
Method: as §1

MDA-MB-453 [7] = assay: as above
Method: as §1

MDA-MB-468 [8] = assay: as above
Method: as §1

MFM-223 = assay: as above
Method: as §1

SK-BR-3 [9] = assay: as above
Method: as §1

CAL-120 [10] = assay: drug sensitivity score (DSS), CellTiter-Blue viability (DSS (AUC-based score)); higher = stronger viability inhibition; extreme values may be limits of the assay
Method: (§2)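 DSRT with the CellTiter-Blue (resazurin reduction) viability readout, fluorescence 560/590 nm, 72 h incubation. Plates were normalised to DMSO and benzethonium chloride controls. DSS is computed from the area under the fitted dose-response curve (5 or 9 concentrations).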

HCC1143 [11] = assay: as above
Method: as §2

HCC1599 [12] = assay: as above
Method: as §2

MDA-MB-436 [13] = assay: as above
Method: as §2

MDA-MB-453 [14] = assay: as above
Method: as §2

SK-BR-3 [15] = assay: as above
Method: as §2

DU-4475 [16] = assay: drug sensitivity score (DSS), CellTiter-Glo (DSS (AUC-based score)); higher = stronger drug effect (viability inhibition or cytotoxicity); extreme values may be limits of the assay
Method in brief: (§3)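 Compound was dispensed into 384-well plates at 5 concentrations in 10-fold steps spanning a 10,000-fold range chosen for each compound, and 20 µl of breast cancer cell suspension was added before 72 h of incubation. CellTox Green fluorescence was read at 485/520 nm, followed by CellTiter-Glo luminescence after 10 min at room temperature. Values on each plate were normalised to 0.1 % DMSO and a positive kill control. The drug sensitivity score came from the area under the fitted dose-response curve.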

HDQ-P1 [17] = assay: as above
Method in brief: as §3

MDA-MB-468 [18] = assay: as above
Method in brief: as §3

| SMILES | normalised viability (BT-474; 100 nM) | normalised viability (BT-549; 100 nM) | normalised viability (CAL-120 [1]; 100 nM) | normalised viability (CAL-148; 10 nM) | normalised viability (CAL-51; 10 nM) | normalised viability (CAL-85-1; 10 nM) | normalised viability (DU-4475 [2]; 10 nM) | normalised viability (HCC1143 [3]; 100 nM) | normalised viability (HCC1599 [4]; 100 nM) | normalised viability (HCC1937; 100 nM) | normalised viability (HDQ-P1 [5]; 10 nM) | drug sensitivity score (CAL-120 [10]) | drug sensitivity score (HCC1143 [11]) | drug sensitivity score (HCC1599 [12]) | drug sensitivity score (MDA-MB-436 [13]) | drug sensitivity score (MDA-MB-453 [14]) | drug sensitivity score (SK-BR-3 [15]) | drug sensitivity score (DU-4475 [16]) | drug sensitivity score (HDQ-P1 [17]) | drug sensitivity score (MDA-MB-468 [18]) | other results |
| --- | --- | --- | --- | --- | --- | --- | --- | --- | --- | --- | --- | --- | --- | --- | --- | --- | --- | --- | --- | --- | --- |
| COc1cc(Nc2c(C#N)cnc3cc(OCCCN4CCN(C)CC4)c(OC)cc23)c(Cl)cc1Cl [Bosutinib] | 103% | 113% | 90.4% | 84.6% | 116% | 108% | 109% | 84.3% | 108% | 98.2% | 128% | 8.36 | 5.05 | 3.68 | 4.98 | 6.37 | 7.78 | 0 | 11.3 | 8.1 | normalised viability (Hs578T; 100 nM): 106%; normalised viability (MDA-MB-231; 100 nM): 121%; normalised viability (MDA-MB-436 [6]; 100 nM): 130%; normalised viability (MDA-MB-453 [7]; 10 nM): 104%; normalised viability (MDA-MB-468 [8]; 100 nM): 107%; normalised viability (MFM-223; 100 nM): 90.3%; normalised viability (SK-BR-3 [9]; 100 nM): 74.8% |
| CN(Cc1cnc2nc(N)nc(N)c2n1)c1ccc(C(=O)N[C@@H](CCC(=O)O)C(=O)O)cc1 [Methotrexate] | 124% | 87.2% | 50.4% | 105% | 107% | 104% | 122% | 69.3% | 106% | 96.2% | 95.7% | 17.3 | 10.5 | 0 | 0 | 0 | 16.2 | 0 | 23.1 | 0 | normalised viability (Hs578T; 100 nM): 78.6%; normalised viability (MDA-MB-231; 100 nM): 85.9%; normalised viability (MDA-MB-436 [6]; 100 nM): 80.7%; normalised viability (MDA-MB-453 [7]; 10 nM): 122%; normalised viability (MDA-MB-468 [8]; 100 nM): 46.3%; normalised viability (MFM-223; 100 nM): 98.2%; normalised viability (SK-BR-3 [9]; 100 nM): 49% |
| Cc1cc(Nc2nc(N[C@@H](C)c3ncc(F)cn3)ncc2Cl)[nH]n1 [AZD1480] |  |  |  |  |  |  |  |  |  |  |  | 0 | 0 | 1.53 | 0 | 0.912 | 0 | 0 | 0 | 0 | normalised viability (BT-474; 10 nM): 124%; normalised viability (BT-549; 10 nM): 94.3%; normalised viability (CAL-120 [1]; 10 nM): 96.9%; normalised viability (CAL-148; 1 nM): 88.9%; normalised viability (CAL-51; 1 nM): 112%; normalised viability (CAL-85-1; 1 nM): 106%; normalised viability (DU-4475 [2]; 1 nM): 98.2%; normalised viability (HCC1143 [3]; 10 nM): 87.5%; normalised viability (HCC1599 [4]; 10 nM): 109%; normalised viability (HCC1937; 10 nM): 100%; normalised viability (HDQ-P1 [5]; 1 nM): 110%; normalised viability (Hs578T; 10 nM): 90.8%; normalised viability (MDA-MB-231; 10 nM): 98.1%; normalised viability (MDA-MB-436 [6]; 10 nM): 135%; normalised viability (MDA-MB-453 [7]; 1 nM): 108%; normalised viability (MDA-MB-468 [8]; 10 nM): 105%; normalised viability (MFM-223; 10 nM): 89.8%; normalised viability (SK-BR-3 [9]; 10 nM): 132% |
| CCN(CC)CCCC(C)Nc1ccnc2cc(Cl)ccc12 (centres undefined) [Chloroquine] |  |  |  |  |  |  |  |  |  |  |  | 0 | 0 | 0 | 0 | 0 | 0 | 8.35 | 7.81 | 10.8 | normalised viability (BT-474; 9.9 nM): 104%; normalised viability (BT-549; 9.9 nM): 104%; normalised viability (CAL-120 [1]; 9.9 nM): 102%; normalised viability (CAL-148; 0.99 nM): 85%; normalised viability (CAL-51; 0.99 nM): 90.3%; normalised viability (CAL-85-1; 0.99 nM): 94.8%; normalised viability (DU-4475 [2]; 0.99 nM): 98.2%; normalised viability (HCC1143 [3]; 9.9 nM): 87.7%; normalised viability (HCC1599 [4]; 9.9 nM): 128%; normalised viability (HCC1937; 9.9 nM): 115%; normalised viability (HDQ-P1 [5]; 0.99 nM): 106%; normalised viability (Hs578T; 9.9 nM): 90.2%; normalised viability (MDA-MB-231; 9.9 nM): 107%; normalised viability (MDA-MB-436 [6]; 9.9 nM): 117%; normalised viability (MDA-MB-453 [7]; 0.99 nM): 100%; normalised viability (MDA-MB-468 [8]; 9.9 nM): 105%; normalised viability (MFM-223; 9.9 nM): 98.2%; normalised viability (SK-BR-3 [9]; 9.9 nM): 92% |
| Cc1cn(-c2cc(NC(=O)c3ccc(C)c(Nc4nccc(-c5cccnc5)n4)c3)cc(C(F)(F)F)c2)cn1 [Nilotinib] | 104% and 102% | 95.6% and 88.2% | 80.1% and 86.2% | 89.9% and 90.2% | 109% and 111% | 93.2% and 92.5% | 98.8% and 104% | 94.3% and 91.8% | 113% and 111% | 90.7% and 85.8% | 101% and 85.7% | 0 | 0 | 0 | 0 | 0 | 0 | 0 | 0 | 0 | normalised viability (Hs578T; 100 nM): 78.3% and 89.4%; normalised viability (MDA-MB-231; 100 nM): 80.4% and 89.5%; normalised viability (MDA-MB-436 [6]; 100 nM): 100% and 93.8%; normalised viability (MDA-MB-453 [7]; 10 nM): 94% and 89%; normalised viability (MDA-MB-468 [8]; 100 nM): 95.9% and 102%; normalised viability (MFM-223; 100 nM): 99.6% and 95.5%; normalised viability (SK-BR-3 [9]; 100 nM): 73.4% and 86.6% |
| CC(=O)[C@]1(O)Cc2c(O)c3c(c(O)c2[C@@H](O[C@H]2C[C@H](N)[C@H](O)[C@H](C)O2)C1)C(=O)c1ccccc1C3=O [Idarubicin] |  |  |  |  |  |  |  |  |  |  |  | 14.5 | 8.64 | 0.917 | 9.77 | 4.55 | 17.7 | 8.12 | 1.38 | 9.11 | normalised viability (BT-474; 10 nM): 113%; normalised viability (BT-549; 10 nM): 82.6%; normalised viability (CAL-120 [1]; 10 nM): 70.1%; normalised viability (CAL-148; 1 nM): 93.9%; normalised viability (CAL-51; 1 nM): 105%; normalised viability (CAL-85-1; 1 nM): 92.3%; normalised viability (DU-4475 [2]; 1 nM): 98%; normalised viability (HCC1143 [3]; 10 nM): 103%; normalised viability (HCC1599 [4]; 10 nM): 97.2%; normalised viability (HCC1937; 10 nM): 47.2%; normalised viability (HDQ-P1 [5]; 1 nM): 113%; normalised viability (Hs578T; 10 nM): 72.8%; normalised viability (MDA-MB-231; 10 nM): 102%; normalised viability (MDA-MB-436 [6]; 10 nM): 106%; normalised viability (MDA-MB-453 [7]; 1 nM): 98%; normalised viability (MDA-MB-468 [8]; 10 nM): 73.3%; normalised viability (MFM-223; 10 nM): 103%; normalised viability (SK-BR-3 [9]; 10 nM): 67% |
| CO[C@@]12[C@H](COC(N)=O)C3=C(C(=O)C(C)=C(N)C3=O)N1C[C@@H]1N[C@@H]12 [Mitomycin C] | 127% | 74.4% | 93.8% | 101% | 108% | 104% | 103% | 83.7% | 108% | 69.2% | 103% | 2.85 | 8.46 | 8.65 | 6.47 | 5.18 | 9.21 | 0 | 0.633 | 4.87 | normalised viability (Hs578T; 100 nM): 97.1%; normalised viability (MDA-MB-231; 100 nM): 107%; normalised viability (MDA-MB-436 [6]; 100 nM): 96.5%; normalised viability (MDA-MB-453 [7]; 10 nM): 87.6%; normalised viability (MDA-MB-468 [8]; 100 nM): 92%; normalised viability (MFM-223; 100 nM): 89.1%; normalised viability (SK-BR-3 [9]; 100 nM): 91.9% |
